In ChEMBL document CHEMBL3997765 (Medchemcomm, 2016):

Legend:
[1] = molecular target: High affinity nerve growth factor receptor (Homo sapiens) (UniProt P04629); assay: Inhibition of recombinant human His-tagged TRKA cytoplasmic domain (441 to 796 residues) expressed in baculovirus expression system at 10 uM by Z'-LYTE assay relative to control
[2] = molecular target: Hepatocyte growth factor receptor (Homo sapiens) (UniProt P08581); assay: Inhibition of recombinant human His-tagged MET cytoplasmic domain (956 to 1390 residues) expressed in baculovirus expression system at 10 uM by Z'-LYTE assay relative to control
[3] = molecular target: Protein kinase C beta type (Homo sapiens) (UniProt P05771); assay: Inhibition of full length recombinant human PKCbeta1 expressed in baculovirus expression system at 10 uM relative to control
[4] = molecular target: Tyrosine-protein kinase Lck (Homo sapiens) (UniProt P06239); assay: Inhibition of recombinant human C-terminal His-tagged LCK cytoplasmic domain expressed in baculovirus expression system at 10 uM by Z'-LYTE assay relative to control
[5] = molecular target: Proto-oncogene tyrosine-protein kinase receptor Ret (Homo sapiens) (UniProt P07949); assay: Inhibition of recombinant human GST-tagged RET cytoplasmic domain (658 to 1114 residues) expressed in baculovirus expression system at 10 uM relative to control
[6] = molecular target: Glycogen synthase kinase-3 beta (Homo sapiens) (UniProt P49841); assay: Inhibition of full length recombinant human His-tagged GSK3beta expressed in baculovirus expression system at 10 uM by Z'-LYTE assay relative to control
[7] = molecular target: Insulin-like growth factor 1 receptor (Homo sapiens) (UniProt P08069); assay: Inhibition of recombinant human C-terminal His-tagged IGF1R cytoplasmic domain (960 to 1397 residues) expressed in baculovirus expression system at 10 uM by Z'-LYTE assay relative to control
[8] = molecular target: Receptor tyrosine-protein kinase erbB-2 (Homo sapiens) (UniProt P04626); assay: Inhibition of recombinant human His-tagged HER2 cytoplasmic domain (676 to 1255 residues) expressed in baculovirus expression system at 10 uM by Z'-LYTE assay relative to control
[9] = molecular target: Ribosomal protein S6 kinase beta-1 (Homo sapiens) (UniProt P23443); assay: Inhibition of recombinant human GST-tagged p70S6K catalytic domain (1 to 421 residues) expressed in baculovirus expression system at 10 uM relative to control
[10] = molecular target: Tyrosine-protein kinase SYK (Homo sapiens) (UniProt P43405); assay: Inhibition of recombinant human N-terminal GST-tagged SYK cytoplasmic domain expressed in baculovirus expression system at 10 uM by Z'-LYTE assay relative to control
[11] = molecular target: Angiopoietin-1 receptor (Homo sapiens) (UniProt Q02763); assay: Inhibition of recombinant human GST-tagged TIE2 cytoplasmic domain (817 to 1101 residues) expressed in baculovirus expression system at 10 uM by Z'-LYTE assay relative to control
[12] = molecular target: Rho-associated protein kinase 1 (Homo sapiens) (UniProt Q13464); assay: Inhibition of recombinant human GST-tagged ROCK1 catalytic domain (1 to 535 residues) expressed in baculovirus expression system at 10 uM relative to control
[13] = molecular target: Tyrosine-protein kinase BTK (Homo sapiens) (UniProt Q06187); assay: Inhibition of recombinant human His-tagged BTK cytoplasmic domain expressed in baculovirus expression system at 10 uM by Z'-LYTE assay relative to control
[14] = molecular target: Vascular endothelial growth factor receptor 2 (Homo sapiens) (UniProt P35968); assay: Inhibition of recombinant human His-tagged KDR cytoplasmic domain (789 to 1356 residues) expressed in baculovirus expression system at 10 uM by Z'-LYTE assay relative to control
[15] = molecular target: Interleukin-1 receptor-associated kinase 4 (Homo sapiens) (UniProt Q9NWZ3); assay: Inhibition of full length recombinant human His-tagged IRAK4 expressed in baculovirus expression system at 10 uM by Z'-LYTE assay relative to control
[16] = molecular target: Mast/stem cell growth factor receptor Kit (Homo sapiens) (UniProt P10721); assay: Inhibition of KIT (unknown origin) at 10 uM by Z'-LYTE assay relative to control
[17] = molecular target: Platelet-derived growth factor receptor beta (Homo sapiens) (UniProt P09619); assay: Inhibition of recombinant human His-tagged PDGFRbeta cytoplasmic domain (558 to 1106 residues) expressed in baculovirus expression system at 10 uM by Z'-LYTE assay relative to control
[18] = molecular target: Cyclin-dependent kinase 1/cyclin B1 (Homo sapiens) (UniProt P06493+P14635); assay: Inhibition of full length recombinant human His-tagged CDK1/Cyclin B expressed in baculovirus expression system at 10 uM by Z'-LYTE assay relative to control
[19] = molecular target: Dual specificity mitogen-activated protein kinase kinase 1 (Homo sapiens) (UniProt Q02750); assay: Inhibition of full length recombinant human His-tagged MEK1 expressed in baculovirus expression system at 10 uM by Z'-LYTE assay relative to control
[20] = molecular target: T1, Mitogen-activated protein kinase 14 (Homo sapiens, UniProt Q16539); assay: Inhibition of full length recombinant human GST-tagged p38alpha expressed in Escherichia coli at 10 uM by Z'-LYTE assay relative to control
[21] = molecular target: Casein kinase I isoform gamma-2 (Homo sapiens) (UniProt P78368); assay: Inhibition of full length recombinant human His-tagged CK1gamma2 expressed in baculovirus expression system at 10 uM by Z'-LYTE assay relative to control
[22] = molecular target: Ephrin type-A receptor 2 (Homo sapiens) (UniProt P29317); assay: Inhibition of recombinant human GST-tagged EPHA2 cytoplasmic domain (560 to 976 residues) expressed in baculovirus expression system at 10 uM by Z'-LYTE assay relative to control
[23] = molecular target: Phosphorylase b kinase gamma catalytic chain, liver/testis isoform (Homo sapiens) (UniProt P15735); assay: Inhibition of full length recombinant human GST-tagged PHKG2 expressed in baculovirus expression system at 10 uM relative to control
[24] = molecular target: Serine/threonine-protein kinase pim-1 (Homo sapiens) (UniProt P11309); assay: Inhibition of full length recombinant human His-tagged PIM1 expressed in baculovirus expression system at 10 uM relative to control
[25] = molecular target: T1, Mitogen-activated protein kinase 14; assay: Inhibition of full length recombinant human GST-tagged p38alpha expressed in Escherichia coli at 10 uM using Ser/Thr04 peptide as substrate in presence of inactive MAPKAPK2 after 1 hr by FRET assay relative to control
[26] = molecular target: Fibroblast growth factor receptor 1 (Homo sapiens) (UniProt P11362); assay: Inhibition of recombinant human His-tagged FGFR1 cytoplasmic domain (308 to 731 residues) expressed in baculovirus expression system at 10 uM by Z'-LYTE assay relative to control
[27] = molecular target: MAP kinase-activated protein kinase 2 (Homo sapiens) (UniProt P49137); assay: Inhibition of full length recombinant human His-tagged MAPKAPK2 expressed in Escherichia coli at 10 uM by Z'-LYTE assay relative to control
[28] = molecular target: Insulin receptor (Homo sapiens) (UniProt P06213); assay: Inhibition of recombinant human GST-tagged INSR cytoplasmic domain (1011 to 1382 residues) expressed in baculovirus expression system at 10 uM by Z'-LYTE assay relative to control

T1 sequence (Q16539 whole entry, canonical isoform): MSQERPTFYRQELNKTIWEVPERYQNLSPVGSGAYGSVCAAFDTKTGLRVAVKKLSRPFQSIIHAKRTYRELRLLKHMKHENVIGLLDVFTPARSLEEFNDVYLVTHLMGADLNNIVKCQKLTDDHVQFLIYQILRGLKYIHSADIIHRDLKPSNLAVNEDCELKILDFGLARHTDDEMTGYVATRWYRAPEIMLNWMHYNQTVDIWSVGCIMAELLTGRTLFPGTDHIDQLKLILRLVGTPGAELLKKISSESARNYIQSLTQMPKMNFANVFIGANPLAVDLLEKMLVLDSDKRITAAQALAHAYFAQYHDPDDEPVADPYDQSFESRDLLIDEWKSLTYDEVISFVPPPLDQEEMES
Proto-oncogene tyrosine-protein kinase receptor Ret (Homo sapiens), sequence (P07949 whole entry, the tested form may be a part): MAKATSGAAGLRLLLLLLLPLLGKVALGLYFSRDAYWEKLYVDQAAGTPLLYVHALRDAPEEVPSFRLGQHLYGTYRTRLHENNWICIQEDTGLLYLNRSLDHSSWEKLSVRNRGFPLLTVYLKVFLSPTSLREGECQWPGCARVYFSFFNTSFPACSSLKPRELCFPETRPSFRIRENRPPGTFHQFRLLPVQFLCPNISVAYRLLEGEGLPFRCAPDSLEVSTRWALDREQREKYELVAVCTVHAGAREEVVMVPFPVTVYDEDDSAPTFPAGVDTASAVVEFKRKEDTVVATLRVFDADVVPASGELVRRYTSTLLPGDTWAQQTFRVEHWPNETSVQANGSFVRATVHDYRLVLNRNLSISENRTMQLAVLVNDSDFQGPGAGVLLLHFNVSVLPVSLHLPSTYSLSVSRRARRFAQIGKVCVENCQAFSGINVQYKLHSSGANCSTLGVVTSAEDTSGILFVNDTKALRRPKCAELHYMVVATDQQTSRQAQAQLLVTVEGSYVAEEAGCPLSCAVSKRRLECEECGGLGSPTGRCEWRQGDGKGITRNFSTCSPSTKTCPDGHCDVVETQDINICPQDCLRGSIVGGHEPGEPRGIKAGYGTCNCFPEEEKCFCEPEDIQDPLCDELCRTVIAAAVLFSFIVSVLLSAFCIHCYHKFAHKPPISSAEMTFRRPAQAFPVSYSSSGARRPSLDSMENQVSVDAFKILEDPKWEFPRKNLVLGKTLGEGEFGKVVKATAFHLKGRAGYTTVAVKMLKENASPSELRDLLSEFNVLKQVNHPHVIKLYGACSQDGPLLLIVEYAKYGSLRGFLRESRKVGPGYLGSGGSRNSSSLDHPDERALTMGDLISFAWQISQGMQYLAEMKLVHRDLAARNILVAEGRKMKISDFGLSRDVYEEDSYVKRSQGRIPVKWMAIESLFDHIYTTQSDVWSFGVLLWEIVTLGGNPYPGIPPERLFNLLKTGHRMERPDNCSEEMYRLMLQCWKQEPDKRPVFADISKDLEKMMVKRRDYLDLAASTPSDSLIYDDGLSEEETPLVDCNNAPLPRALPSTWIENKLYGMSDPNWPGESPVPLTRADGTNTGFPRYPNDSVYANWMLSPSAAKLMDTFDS
Vascular endothelial growth factor receptor 2 (Homo sapiens), sequence (P35968 whole entry, the tested form may be a part): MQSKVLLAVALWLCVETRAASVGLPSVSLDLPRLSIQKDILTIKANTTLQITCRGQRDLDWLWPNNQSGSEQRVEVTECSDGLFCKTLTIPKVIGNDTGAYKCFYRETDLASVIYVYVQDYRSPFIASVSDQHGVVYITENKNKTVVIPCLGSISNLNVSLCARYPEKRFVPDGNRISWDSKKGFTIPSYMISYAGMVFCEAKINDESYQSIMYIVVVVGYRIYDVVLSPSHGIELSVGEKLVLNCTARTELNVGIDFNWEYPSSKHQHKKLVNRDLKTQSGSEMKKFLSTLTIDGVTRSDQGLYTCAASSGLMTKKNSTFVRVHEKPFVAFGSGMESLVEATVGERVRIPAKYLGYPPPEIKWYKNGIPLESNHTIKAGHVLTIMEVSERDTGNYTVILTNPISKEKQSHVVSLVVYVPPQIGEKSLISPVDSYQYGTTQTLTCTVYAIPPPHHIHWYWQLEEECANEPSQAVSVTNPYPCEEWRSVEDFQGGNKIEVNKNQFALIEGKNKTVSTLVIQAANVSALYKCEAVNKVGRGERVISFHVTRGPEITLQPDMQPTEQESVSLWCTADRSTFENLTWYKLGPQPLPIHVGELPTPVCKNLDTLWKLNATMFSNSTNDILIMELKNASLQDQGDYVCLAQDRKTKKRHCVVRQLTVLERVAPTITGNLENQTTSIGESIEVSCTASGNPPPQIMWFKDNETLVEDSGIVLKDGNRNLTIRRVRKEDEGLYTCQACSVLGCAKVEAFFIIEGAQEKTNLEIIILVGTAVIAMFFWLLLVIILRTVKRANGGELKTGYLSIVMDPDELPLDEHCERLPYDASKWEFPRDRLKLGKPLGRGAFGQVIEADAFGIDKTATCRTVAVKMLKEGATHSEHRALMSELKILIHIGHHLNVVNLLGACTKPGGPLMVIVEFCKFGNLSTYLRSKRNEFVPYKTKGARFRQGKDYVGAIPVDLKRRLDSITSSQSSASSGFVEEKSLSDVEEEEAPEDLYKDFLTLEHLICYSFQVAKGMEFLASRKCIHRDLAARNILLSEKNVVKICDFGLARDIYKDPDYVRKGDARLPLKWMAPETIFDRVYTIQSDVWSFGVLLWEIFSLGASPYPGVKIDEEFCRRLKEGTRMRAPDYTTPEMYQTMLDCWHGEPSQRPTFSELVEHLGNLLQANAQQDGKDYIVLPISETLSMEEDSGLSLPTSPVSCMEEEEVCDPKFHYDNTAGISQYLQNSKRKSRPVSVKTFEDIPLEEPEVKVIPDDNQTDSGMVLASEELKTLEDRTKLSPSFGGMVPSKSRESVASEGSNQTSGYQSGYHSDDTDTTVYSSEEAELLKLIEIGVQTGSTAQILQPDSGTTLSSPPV
Mast/stem cell growth factor receptor Kit (Homo sapiens), sequence (P10721 whole entry, the tested form may be a part): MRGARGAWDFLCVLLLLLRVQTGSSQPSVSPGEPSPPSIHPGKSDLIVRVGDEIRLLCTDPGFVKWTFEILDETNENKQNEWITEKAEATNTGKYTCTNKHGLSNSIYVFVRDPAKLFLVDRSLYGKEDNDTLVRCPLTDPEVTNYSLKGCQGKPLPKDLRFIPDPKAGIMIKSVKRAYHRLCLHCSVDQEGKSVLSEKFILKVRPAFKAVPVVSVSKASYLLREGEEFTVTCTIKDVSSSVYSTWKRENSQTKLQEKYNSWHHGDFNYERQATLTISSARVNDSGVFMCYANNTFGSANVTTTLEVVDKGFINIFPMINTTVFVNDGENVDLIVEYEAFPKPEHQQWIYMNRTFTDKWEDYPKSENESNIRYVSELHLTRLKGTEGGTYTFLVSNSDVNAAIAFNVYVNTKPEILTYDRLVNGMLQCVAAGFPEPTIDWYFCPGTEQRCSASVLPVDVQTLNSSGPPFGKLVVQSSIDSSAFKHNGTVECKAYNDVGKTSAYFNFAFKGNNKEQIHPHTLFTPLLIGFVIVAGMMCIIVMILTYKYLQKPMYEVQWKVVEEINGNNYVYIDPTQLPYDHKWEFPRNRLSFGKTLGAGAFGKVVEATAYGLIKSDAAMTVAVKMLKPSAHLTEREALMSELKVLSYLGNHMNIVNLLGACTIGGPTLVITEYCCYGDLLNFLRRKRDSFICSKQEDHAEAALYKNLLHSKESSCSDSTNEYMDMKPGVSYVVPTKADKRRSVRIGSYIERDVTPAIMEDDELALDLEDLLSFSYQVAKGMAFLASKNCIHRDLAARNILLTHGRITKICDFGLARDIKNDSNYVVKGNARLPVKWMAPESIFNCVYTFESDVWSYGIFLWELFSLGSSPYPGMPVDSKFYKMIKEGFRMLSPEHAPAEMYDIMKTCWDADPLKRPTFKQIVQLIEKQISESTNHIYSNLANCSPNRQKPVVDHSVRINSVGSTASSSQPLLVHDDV
Fibroblast growth factor receptor 1 (Homo sapiens), sequence (P11362 22-822 limits assumed): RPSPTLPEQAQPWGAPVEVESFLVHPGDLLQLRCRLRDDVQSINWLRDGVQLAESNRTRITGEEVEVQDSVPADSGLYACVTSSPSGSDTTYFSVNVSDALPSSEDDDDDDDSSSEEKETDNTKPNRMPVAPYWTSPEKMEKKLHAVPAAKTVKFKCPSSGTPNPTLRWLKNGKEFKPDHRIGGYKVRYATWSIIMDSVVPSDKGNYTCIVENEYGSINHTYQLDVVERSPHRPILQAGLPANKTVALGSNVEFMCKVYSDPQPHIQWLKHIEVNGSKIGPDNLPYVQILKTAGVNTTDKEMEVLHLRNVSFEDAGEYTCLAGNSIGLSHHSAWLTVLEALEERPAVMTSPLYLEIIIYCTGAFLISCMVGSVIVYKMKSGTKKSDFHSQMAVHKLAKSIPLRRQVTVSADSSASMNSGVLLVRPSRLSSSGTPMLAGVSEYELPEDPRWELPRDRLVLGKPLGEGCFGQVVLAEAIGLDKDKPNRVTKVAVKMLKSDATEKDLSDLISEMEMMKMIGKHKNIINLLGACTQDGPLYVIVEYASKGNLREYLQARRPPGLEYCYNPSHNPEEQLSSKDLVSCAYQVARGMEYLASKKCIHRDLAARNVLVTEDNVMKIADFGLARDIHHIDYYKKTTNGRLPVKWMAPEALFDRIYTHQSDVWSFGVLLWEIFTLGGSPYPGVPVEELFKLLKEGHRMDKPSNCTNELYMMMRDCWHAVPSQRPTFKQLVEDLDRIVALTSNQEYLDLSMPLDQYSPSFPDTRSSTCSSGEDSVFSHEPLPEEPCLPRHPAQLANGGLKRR
MAP kinase-activated protein kinase 2 (Homo sapiens), sequence (P49137 whole entry, looked up, the tested form may be a part): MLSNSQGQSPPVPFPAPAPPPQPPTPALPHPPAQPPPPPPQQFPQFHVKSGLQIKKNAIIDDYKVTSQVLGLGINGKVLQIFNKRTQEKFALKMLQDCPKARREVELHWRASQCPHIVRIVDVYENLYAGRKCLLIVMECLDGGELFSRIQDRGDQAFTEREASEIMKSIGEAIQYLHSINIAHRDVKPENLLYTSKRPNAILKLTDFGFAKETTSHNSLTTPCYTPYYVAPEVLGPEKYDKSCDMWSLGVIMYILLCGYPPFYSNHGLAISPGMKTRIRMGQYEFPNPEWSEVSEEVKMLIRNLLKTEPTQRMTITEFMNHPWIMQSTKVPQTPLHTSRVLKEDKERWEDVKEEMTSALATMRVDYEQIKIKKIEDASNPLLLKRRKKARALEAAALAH

Compound: CC1=Nc2c(Sc3ccccc3)ncnc2Sc2ccccc21
- inhibition [1]: 2%
- inhibition [2]: 14%
- inhibition [3]: 1%
- inhibition [4]: 10%
- inhibition [5]: 7%
- inhibition [6]: 7%
- inhibition [7]: 2%
- inhibition [8]: -4%
- inhibition [9]: 1%
- inhibition [10]: -3%
- inhibition [11]: 11%
- inhibition [12]: 2%
- inhibition [13]: 3%
- inhibition [14]: 12%
- inhibition [15]: 3%
- inhibition [16]: 3%
- inhibition [17]: -1%
- inhibition [18]: 8%
- inhibition [19]: 2%
- inhibition [20]: 74%
- inhibition [21]: 6%
- inhibition [22]: 9%
- inhibition [23]: 2%
- inhibition [24]: 3%
- inhibition [25]: 37%
- inhibition [26]: -4%
- inhibition [27]: 8%
- inhibition [28]: 2%
